Reference: patent US20120028931A1, “HETEROCYCLIC M-GLU5 ANTAGONISTS” (RECORDATI IRELAND LIMITED, priority 2009, published 2012)

Experiments:
mGlu5 receptor = molecular target: T1, mGlu5 receptor (Rattus norvegicus, UniProt P31424); assay: Radioligand binding assay at metabotropic glutamate receptor 5 in rat brain ([3H]MPEP); conditions: rat forebrain membranes, 4 nM [3H]MPEP; Ki from IC50 by Cheng & Prusoff; read-out: affinity (Ki) for mGlu5 receptor
T1 construct: from tissue; host or cells: forebrain (cortex, striatum and hippocampus) membranes of male Sprague Dawley rats
Protocol: Radioligand Binding Assay at metabotropic glutamate receptor 5 in rat brain.
a) Membrane preparation: male Sprague Dawley rats (200-300 g, Charles River, Italy) were killed by cervical dislocation and the forebrain (cortex, striatum and hippocampus) was homogenized (2×20 sec) in 50 vols of cold 50 mM Tris buffer pH 7.4, using a Politron homogenizer (Kinematica). Homogenates were centrifuged at 48000×g for 15 min, resuspended in 50 vols of the same buffer, incubated at 37° C. for 15 min and centrifuged and resuspended two more times. The final pellets were frozen and stored at −80° C. until use.
b) Binding assay: pellets from rat forebrain were resuspended in 100 vols of 20 mM HEPES, 2 mM MgCl2, 2 mM CaCl2, pH 7.4. The membranes were incubated in a final volume of 1 ml for 60 min at 25° C. with 4 nM [^3H]MPEP in the absence or presence of competing drugs. Non-specific binding was determined in the presence of 10 μM MPEP (Spooren W. et al. Trends Pharmacol Sci. 22, 331-337, 2001). The incubation was stopped by the addition of cold Tris buffer pH 7.4 and rapid filtration through 0.5% polyethyleneimine pretreated Filtermat 1204-401 (Wallac) filters. The filters were then washed with cold buffer and the radioactivity retained on the filters was counted by liquid scintillation spectrometry. […]

conscious rats = assay: Cystometry in conscious rats; type: in vivo, rat; conditions: administered orally
Protocol: Male Sprague-Dawley rats [Crl: CD® (SD) IGS BR] of 300-400 g b.w. supplied by Charles River Italia were used. The animals were housed with free access to food and water and maintained on a forced 12-hour-light/12-hour-dark cycle at 22-24° C. of temperature, except during the experiment. To quantify urodynamic parameters in conscious rats, cystometrographic studies were performed according to the procedure previously reported (Guarneri et al., Pharmacol. Res. 24: 175, 1991).
Briefly, the rats were anaesthetised by intraperitoneal administration of 3 ml/kg of Equithensin solution (pentobarbital 30 mg/kg and chloral hydrate 125 mg/kg) and placed in a supine position. […]
On the day of the experiment, the rats were placed in modified Bollman cages, i.e., restraining cages that were large enough to permit the rats to adopt a normal crouched posture, but narrow enough to prevent turning around. […] The intraluminal-pressure signal during infusion of saline into the bladder (cystometrogram) was continuously recorded on a polygraph (Rectigraph-8K San-ei with BM614/2 amplifier from Biomedica Mangoni) or stored on PC by data acquisition system (PowerLab, Chart 4 software, AD Instruments). From the cystometrogram, bladder volume capacity (BVC) was evaluated. […] Basal BVC value was evaluated as the mean of the values observed in the cystometrograms recorded in an initial period of 30-60 minutes. […]

T1 sequence (P31424 21-1203): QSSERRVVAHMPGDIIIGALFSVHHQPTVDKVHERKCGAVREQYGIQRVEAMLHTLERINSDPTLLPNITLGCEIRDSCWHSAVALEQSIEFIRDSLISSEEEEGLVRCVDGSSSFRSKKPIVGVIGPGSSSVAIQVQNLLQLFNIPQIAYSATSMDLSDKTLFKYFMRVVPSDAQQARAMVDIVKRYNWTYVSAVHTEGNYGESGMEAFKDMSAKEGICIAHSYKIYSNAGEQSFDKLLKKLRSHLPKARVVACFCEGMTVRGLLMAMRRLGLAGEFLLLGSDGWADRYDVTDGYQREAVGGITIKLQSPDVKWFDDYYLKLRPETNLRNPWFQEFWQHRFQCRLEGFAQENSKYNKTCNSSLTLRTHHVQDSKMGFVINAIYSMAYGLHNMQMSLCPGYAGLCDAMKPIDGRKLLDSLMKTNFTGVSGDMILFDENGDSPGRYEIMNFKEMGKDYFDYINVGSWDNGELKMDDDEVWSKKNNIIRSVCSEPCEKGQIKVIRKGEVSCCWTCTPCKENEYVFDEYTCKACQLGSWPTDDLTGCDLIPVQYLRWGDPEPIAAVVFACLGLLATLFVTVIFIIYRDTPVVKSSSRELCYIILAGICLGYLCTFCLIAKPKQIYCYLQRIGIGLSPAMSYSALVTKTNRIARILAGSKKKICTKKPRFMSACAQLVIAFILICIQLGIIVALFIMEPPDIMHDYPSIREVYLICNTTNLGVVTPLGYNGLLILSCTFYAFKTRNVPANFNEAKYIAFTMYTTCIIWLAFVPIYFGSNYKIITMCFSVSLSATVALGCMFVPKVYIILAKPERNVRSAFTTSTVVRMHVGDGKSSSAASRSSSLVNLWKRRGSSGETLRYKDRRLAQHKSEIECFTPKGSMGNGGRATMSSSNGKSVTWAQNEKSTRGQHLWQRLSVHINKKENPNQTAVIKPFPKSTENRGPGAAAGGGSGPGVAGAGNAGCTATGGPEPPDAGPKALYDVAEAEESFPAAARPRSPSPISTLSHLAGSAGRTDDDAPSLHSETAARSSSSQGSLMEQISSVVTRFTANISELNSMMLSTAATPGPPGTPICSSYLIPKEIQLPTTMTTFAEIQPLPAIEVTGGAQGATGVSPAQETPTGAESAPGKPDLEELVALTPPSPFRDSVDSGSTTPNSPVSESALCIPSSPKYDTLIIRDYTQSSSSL

Ki (mGlu5 receptor) [nM] | SMILES | effect on bladder volume capacity (BVC) (conscious rats)
0.37 | Cc1ccc([N+](=O)[O-])c(N2CCC(=Cc3cc(-c4ccco4)n(C)n3)CC2)n1 [Example 1, 1-(6-methyl-3-nitro-2-pyridyl)-4-{[5-(2-furyl)-1-methyl-1H-pyrazol-3-yl]-methylene}-piperidine] | –
– | Cc1ccc([N+](=O)[O-])c(N2CCC(=Cc3noc(-c4cccs4)n3)CC2)n1 [Example 29, 1-(6-methyl-3-nitro-2-pyridyl)-4-{[5-(2-thienyl)-1,2,4-oxadiazol-3-yl]-methylene}-piperidine] | effective in increasing the bladder volume capacity
